Data on one compound can be found in article PMC12320245 (International Journal of Biological Sciences, 2025).

The structures appear in SMILES notation.

The subject of assay [1] is IκB kinase ε (IKK-ε). On the set-up: method as in PMID 23396208. Conditions: cited from earlier work.
For assay [2], the system named is PKA. Kind of assay: PKA colorimetric activity assay (test tubes). The assay is classed as biochemical. Conditions: 0.1-10 µM. As to the method:
PKA activity was assessed using a microplate-based kinase activity assay. Each well contained reaction buffer, a purified PKA enzyme, and test samples, followed by adding 10 μL of adenosine triphosphate (ATP) solution to initiate the reaction. Plates were incubated at 30°C for 90 minutes, before being washed four times with wash buffer to remove unbound components. Next, 25 μL each of phospho-PKA substrate antibody and horseradish peroxidase (HRP)-conjugated secondary antibody (donkey anti-rabbit IgG) were added to each well. The plates were incubated at room temperature (RT) for 60 minutes under continuous shaking to ensure uniform binding. To detect the phosphorylated substrate, 100 μL of tetramethylbenzidine (TMB) substrate was added to each well, followed by a 30-minute incubation at RT. The reaction was terminated by adding stop solution, and the absorbance was measured at 450 nm by using a microplate reader to quantify PKA activity.

In assay [3] the test system is primary hippocampal neurons. Kind of assay: Scratch injury: p-PKA immunofluorescence. In kind it is cell-based, rat. Conditions: 24 hours after scratch injury. As to the method: (§1) Primary hippocampal neurons were obtained from embryonic day 18 (E18) Sprague-Dawley rat embryos. Pregnant rats were anesthetized using 2-3% isoflurane in a gas mixture of 70% nitrous oxide and 30% oxygen. Following euthanasia, the hippocampi were carefully dissected, minced, and enzymatically dissociated using TrypLE Express (Gibco, NY, USA) for 10 minutes at 37°C. The tissue was further mechanically dissociated using fire-polished glass pipettes, and the resulting cell suspension was filtered through a 70 μm cell strainer to remove debris. Neurons were seeded at a density of 3 × 10^5 cells per well in 24-well plates pre-coated with poly-L-lysine (Sigma-Aldrich, Saint Louis, MO, USA). Cells were maintained in neurobasal medium supplemented with B-27 (Thermo Fisher Scientific, Waltham, MA, USA), GlutaMAX (Gibco), and penicillin-streptomycin. The cultures were incubated at 37.5°C in a humidified atmosphere containing 5% CO₂. After seven days of growth, neurons were fixed with 4% paraformaldehyde (PFA) for 15 minutes at room temperature and subsequently stored at 4°C until their further use for immunostaining.
(§2) A scratch injury model was used to mimic TBI in vitro. […] After the treatment period, neuronal damage and recovery were assessed using appropriate evaluation methods. […]

Assay [4] relates to primary hippocampal neurons. Kind of assay: Scratch injury: MAP2 / NeuN immunocytochemistry. The assay is classed as cell-based, rat. Conditions: scratched neurons, 24 hours after scratch. How it is done: as §1, §2
The test system of assay [5] is hippocampus of TBI rats. In words: Controlled cortical impact TBI: hippocampal immunofluorescence. The assay is classed as in vivo, rat. As to the method:
(§3) This study used male Sprague-Dawley rats weighing 300-350 g and aged 8 weeks, obtained from DBL Co. (Chungcheongbuk-do, Republic of Korea). The rats were housed in a controlled environment with a temperature of 20 ± 2 °C, a relative humidity of 55 ± 5%, and a 12-hour light/dark cycle. They were provided ad libitum access to food and water. To minimize stress associated with transportation, animals underwent a one-week acclimatization period before the start of the experiments. All experimental procedures were conducted in compliance with the guidelines of the National Institutes of Health for the care and use of laboratory animals and were approved by the Hallym University Institutional Animal Care and Use Committee (protocol # Hallym 2022-23, approved on July 15, 2022). This manuscript follows the principles outlined in the Animal research: reporting in vivo experiments (ARRIVE) guidelines.
A controlled cortical impact (CCI) model was used to induce TBI in rats. Animals were anesthetized with 1-1.5% isoflurane in a 30:70 oxygen-to-nitrous oxide mixture and securely positioned in a stereotaxic frame. A 3 mm craniotomy was performed using a portable drill at a site 2.8 mm lateral to the midline and 3.0 mm posterior to Bregma. TBI was induced using an Impact One™ Stereotaxic Impactor (Leica Biosystems) equipped with a 3 mm flat-tip, set to deliver an impact at a velocity of 5 m/s and a depth of 3 mm. Throughout the procedure, body temperature was maintained at 36-37.5°C using a homeothermic blanket system to prevent hypothermia. […] At designated time points (3 hours, 24 hours, or 2 weeks post-injury), animals were euthanized via transcardial perfusion with saline, followed by 4% paraformaldehyde (PFA). Brains were post-fixed in 4% PFA for 1 hour, cryoprotected in 30% sucrose, and sectioned at a 30 μm thickness using a cryostat microtome (CM1850; Leica, Wetzlar, Germany). Brain sections were stored in cryoprotectant solution at 4°C until further analysis.
Brain tissues were initially treated with 1.2% hydrogen peroxide at room temperature for 15 minutes to block endogenous peroxidase activity. Following this step, the tissues were washed three times in PBS for 10 minutes each. The tissues and fixed primary neurons were incubated overnight at 4°C with primary antibodies diluted in antibody diluent. […]. After incubation with primary antibodies, tissues were washed in PBS and incubated for 2 hours at room temperature on a shaker with fluorescent-conjugated secondary antibodies (1:250, Invitrogen). All samples were counterstained with DAPI (1:1000, Invitrogen) to visualize cell nuclei. The stained tissues were mounted on gelatin-coated slides, air-dried, and coverslipped using DPX mounting medium. To evaluate the fluorescent signals of labeled proteins, observations were performed using a Zeiss LSM 710 confocal microscope (Carl Zeiss) with sequential scanning mode for DAPI and Alexa 488 and 594. Stacks of images (1024 × 1024 pixels) from consecutive slices of 0.5-0.8 μm in thickness were obtained by averaging fifteen scans per slice, processed using ZEN 2 (blue edition, Carl Zeiss).

Assay [6] concerns hippocampus of TBI rats. Kind of assay: Controlled cortical impact TBI: Fluoro-Jade B neuronal death. The settings on record: ipsilateral CA1, CA3, GCL, hilus, 24 hours post-TBI, vs TBI-vehicle. In kind it is in vivo, rat. How it is done: as §3
A controlled cortical impact (CCI) model was used to induce TBI in rats. […]
Neuronal death was assessed 24 hours after TBI via Fluoro-Jade B (FJB) staining, a method designed for detecting degenerating neurons. […] FJB-positive cells were quantified in hippocampal subregions, including CA1 (Cornu Ammonis 1), CA3 (Cornu Ammonis 3), GCL (granule cell layer), and the hilus.

The subject of assay [7] is activated microglia and astrocytes (Iba1, GFAP). The settings on record: post-seizure AMX treatment; cited from earlier work.
Where [8] appears, read: hippocampal regions, 24 hours after TBI.
Setting [9] is: hippocampus, 24 hours after TBI.

As to `CC(C)c1ccc2oc3nc(N)c(C(=O)O)cc3c(=O)c2c1` [AMX, amlexanox], in assay [1], the “inhibition of IKK-ε” value is “dual inhibitor”. Also, the “PKA activity in test tubes” value in assay [2] is recorded as “activates PKA”. For the same compound, the “phosphorylation of PKA (immunofluorescence, Figure S2E-J)” value in assay [3] is recorded as “increasing the phosphorylation of PKA”. Also, in assay [4], the “MAP2 fluorescence intensity (dendritic loss)” value was “Increased MAP2 fluorescence intensity” and the “number of NeuN-positive neurons” value is recorded as “significantly higher”. Besides, the “hippocampal PDE4 expression (immunofluorescence)” value in assay [5] (3 hours post-TBI) is reported as “markedly reduced PDE4 expression”. Besides, in assay [5] (setting [8]), the “4HNE staining (lipid peroxidation)” value is recorded as “significantly reduced 4HNE staining”; the “CD86 staining (M1 polarization)” value is “decreased Iba-1 and CD86 staining”; the “Iba-1 staining (microglial activation)” value is “decreased Iba-1 and CD86 staining”. For the same compound, in assay [5] (hippocampal regions, 24 hours post-TBI, vs TBI-vehicle), the “p-p38 levels (immunofluorescence)” value is reported as “significantly reduced p-p38 levels”. In addition, in assay [5] (setting [9]), the C3 intensity result was “lower GFAP and C3 intensity”; the “GFAP intensity (astrocytic activation)” value is “lower GFAP and C3 intensity”. In addition, the “number of FJB-positive degenerating neurons” value in assay [6] is reported as “significantly reduced the number of FJB-positive degenerating neurons”. For the same compound, the “activated microglia and astrocytes (Iba1, GFAP)” value in assay [7] is “markedly decreased activated microglia and astrocytes”.
